Assay results taken from patent US7495104B2, “Quinoline or quinazoline derivatives inhibiting auto-phosphorylation of fibroblast growth factor receptors” (Kirin Beer Kabushiki Kaisha, priority 2001, dated 2009).
Counter-ions that a name gives are not always drawn.

Key:
[1] = tested on: Human gastric cancer cells (OCUM-2MD3); assay: Tumor growth inhibitory activity against human gastric cancer cells (OCUM-2MD3) in nude mice (Pharmacological Test Example 3); assay type: in vivo; conditions: Mus musculus, read-out: TGIR (tumor growth inhibition rate); for inhibition in vivo at 25 mg: 600 h, dose per day 25 mg × 1, oral; for inhibition in vivo at 10 mg: 240 h, dose per day 10 mg × 2, oral
Method: (§1) Human gastric cancer cells (OCUM-2MD3) (kindly provided by Dr. Kosei Hirakawa, Osaka City University) were transplanted into nude mice. […] The test compound suspended in 0.5% methylcellulose was orally administered every day twice a day for 5 days (except for the first day on which the suspension was administered once a day).
(§2) Only 0.5% methylcellulose was administered to the control group in the manner as in the test groups. The tumor growth inhibition rate (TGIR) was calculated as follows: The tumor growth inhibition rate (TGIR)=(1−TX/CX)×100 wherein CX represents the volume of tumor at day X for the control group when the tumor volume at the day of the start of the administration was presumed to be 1; and TX represents the volume of tumor for test compound administration groups.
Tumor growth inhibitory activity was measured in the same manner as in Pharmacological Test Example 2, except that oral administration was carried out once a day or twice a day (except for the first day on which the suspension was administered once a day).

[2] = biological target: Bek (Homo sapiens, UniProt P21802); assay: Inhibitory activity against Bek-autophosphorylation using ELISA method in OCUM-2MD3 cells; assay type: cell-based; conditions: 1 hr with compound, read-out: IC50 (concentration necessary for inhibiting 50% of Bek-phosphorylation)
Sequence of Bek (P21802 431-767 limits assumed): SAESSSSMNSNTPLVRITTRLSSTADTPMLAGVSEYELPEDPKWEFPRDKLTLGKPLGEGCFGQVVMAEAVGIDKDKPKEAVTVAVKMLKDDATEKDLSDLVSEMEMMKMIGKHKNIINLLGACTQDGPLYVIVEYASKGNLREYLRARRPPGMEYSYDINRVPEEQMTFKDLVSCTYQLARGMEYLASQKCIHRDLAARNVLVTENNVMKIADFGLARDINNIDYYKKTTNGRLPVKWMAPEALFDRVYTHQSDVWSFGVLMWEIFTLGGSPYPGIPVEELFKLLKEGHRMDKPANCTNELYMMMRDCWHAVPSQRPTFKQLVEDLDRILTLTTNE
In short: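 Sandwich ELISA (anti-phosphotyrosine capture, anti-Bek detection, peroxidase, 450 nm) measured Bek autophosphorylation in OCUM-2MD3 lysates after 1 hr compound treatment at 37° C in 0.1% serum medium. IC50 derived by scaling between no-drug (100%) and excess positive control at 1000 nM (0%).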

[3] = tested on: Human gastric cancer cells (OCUM-2MD3); assay: Tumor growth inhibitory activity against human gastric cancer cells (OCUM-2MD3) in nude mice (Pharmacological Test Example 2); assay type: in vivo; conditions: unit dose 10 mg/kg, oral, twice a day for 5 days
Method: as §1, §2

SMILES	IC50 [2] [nM]	inhibition in vivo at 25 mg [1] [%]	inhibition in vivo at 10 mg [1] [%]	inhibition in vivo at 30 mg ([1]; 720 h, dose per day 30 mg × 2, oral) [%]	TGIR (tumor growth inhibition rate) [3] [%]
COc1cc2c(Oc3ccc(NC(=O)NCCC(C)(C)C)c(Cl)c3)ccnc2cc1OCCN1CCCCC1 [Compound 100, 1-{2-Chloro-4-[6-methoxy-7-(2-piperidin-1-yl-ethoxy)-quinolin-4-yloxy]-phenyl}-3-(3,3-dimethyl-butyl)-urea]	175	43	–	–	–
COc1cc2c(Oc3ccc(NC(=O)NCCC(C)(C)C)c(F)c3)ccnc2cc1OCCN1CCCCC1 [Compound 99, 1-(3,3-Dimethyl-butyl)-3-{2-fluoro-4-[6-methoxy-7-(2-piperidin-1-yl-ethoxy)-quinolin-4-yloxy]-phenyl}-urea]	28.6	63	–	–	–
COc1cc2nccc(Oc3ccc(NC(=O)NCCC(C)(C)C)cc3)c2cc1OCCN1CCOCC1 [Compound 90, 1-(3,3-Dimethyl-butyl)-3-{4-[7-methoxy-6-(2-morpholin-4-yl-ethoxy)-quinolin-4-yloxy]-phenyl}-urea]	12.6	–	36	–	–
COc1cc2c(Oc3ccc(NC(=O)NCCC(C)(C)C)c(Cl)c3)ccnc2cc1OCCN1CCOCC1 [Compound 114, 1-{2-Chloro-4-[6-methoxy-7-(2-morpholin-4-yl-ethoxy)-quinolin-4-yloxy]-phenyl}-3-(3,3-dimethyl-butyl)-urea]	20.1	–	–	48	–
COc1cc2c(Oc3ccc(Nc4ccc(C(C)(C)C)cc4)cc3)ccnc2cc1OCCN1CCOCC1 [Compound 37 (hydrochloride)]	–	–	–	–	35
COc1cc2c(Oc3ccc(Nc4ccc(C(C)(C)C)cc4)cc3)ccnc2cc1OCC(O)CN1CCOCC1 (stereo not drawn) [Compound 59 (hydrochloride)]	–	–	–	–	16
COc1cc2c(Oc3ccc(NC(=O)NCCC(C)(C)C)cc3)ccnc2cc1OCCN1CCCCC1 [Compound 91, 1-(3,3-Dimethyl-butyl)-3-{4-[6-methoxy-7-(2-piperidin-1-yl-ethoxy)-quinolin-4-yloxy]-phenyl}-urea hydrochloride]	18.4	28	–	–	–
COc1cc2nccc(Oc3ccc(Nc4ccc(C(C)(C)C)cc4)cc3)c2cc1OCC(O)CN1CCOCC1 (stereo not drawn) [Compound 86, 1-[(4-{4-[4-(Tert-butyl)anilino]phenoxy}-7-methoxy-6-quinolyl)-oxy]-3-morpholino-2-propanol]	–	–	30	–	–
COc1cc2c(Oc3ccc(NC(=O)NCCC(C)(C)C)c(F)c3)ccnc2cc1OCCCN1CCOCC1 [Compound 88, 1-(3,3-Dimethyl-butyl)-3-{2-fluoro-4-[6-methoxy-7-(3-morpholin-4-yl-propoxy)-quinolin-4-yloxy]-phenyl}-urea hydrochloride]	10.8	–	35	–	–

Second part, led by results:

IC50 [2] [nM]	SMILES	inhibition in vivo at 25 mg [1] [%]	inhibition in vivo at 10 mg [1] [%]	inhibition in vivo at 30 mg ([1]; 720 h, dose per day 30 mg × 2, oral) [%]	TGIR (tumor growth inhibition rate) [3] [%]
< 10	COc1cc2c(Oc3ccc(NC(=O)NCCC(C)(C)C)c(F)c3)ccnc2cc1OCC(O)CN1CCOCC1 (stereo not drawn) [Compound 89, 1-(3,3-Dimethyl-butyl)-3-{2-fluoro-4-[7-(2-hydroxy-3-morpholin-4-yl-propoxy)-6-methoxy-quinolin-4-yloxy]-phenyl}-urea hydrochloride]	–	29	–	–
< 10	COc1cc2c(Oc3ccc(NC(=O)NCCC(C)(C)C)cc3F)ccnc2cc1OCCN1CCOCC1 [Compound 98, 1-(3,3-Dimethyl-butyl)-3-{3-fluoro-4-[6-methoxy-7-(2-morpholin-4-yl-ethoxy)-quinolin-4-yloxy]-phenyl}-urea]	48	–	–	–
< 10	COc1cc2c(Oc3ccc(NC(=O)NCCC(C)(C)C)c(F)c3)ccnc2cc1OCCN1CC(C)OC(C)C1 (stereo not drawn) [Compound 97, 1-(3,3-Dimethyl-butyl)-3-(4-{7-[2-(2,6-dimethyl-morpholin-4-yl)-ethoxy]-6-methoxy-quinolin-4-yloxy}-2-fluoro-phenyl)-urea]	48	–	–	–
< 10	COc1cc2c(Oc3ccc(NC(=O)NCCC(C)(C)C)c(F)c3)ccnc2cc1OCCN1CCOCC1 [Compound 87, 1-(3,3-Dimethyl-butyl)-3-{2-fluoro-4-[6-methoxy-7-(2-morpholin-4-yl-ethoxy)-quinolin-4-yloxy]-phenyl}-urea]	54	33	–	–
